In brackets after ≈: the same amount, converted by molar mass. Positions of bridges follow the written chain, without caps; N, C: chain ends. Non-standard residues stand in square brackets, D forms with d. Residues, ends and D or L forms follow the SMILES beside them. Phe(3-CF3) = N[C@@H](Cc1cccc(C(F)(F)F)c1)C(=O)O; Lys(N3) = [N-]=[N+]=NCCCC[C@H](N)C(=O)O; R8 = C=CCCCCCC[C@@](C)(N)C(=O)O; Cba = N[C@@H](CC1CCC1)C(=O)O; S5 = C=CCCC[C@](C)(N)C(=O)O; βAla = NCCC(=O)O
Experiments:
[1] = physchem
[2] = Experimental LogD (partition coefficient); details: for logD: not stated, Partition Coeff LogD
[3] = in vitro; details: Nanoclick permeability assay EC50
Procedure, shortened: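 Azido-peptide permeability was read as loss of NanoBRET signal (donor 450 nm, acceptor 610 nm) after adding NanoBret618-azide at 10 μM final.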

[4] = test system: HCT116 cells; assay: Lactate dehydrogenase (LDH) release assay; type: cell-based
Procedure, shortened: (§1)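 Geometric means of at least three independent biological runs are given for LDH release measured in HCT116 cells stably expressing a p53-driven β-lactamase reporter. Plating density was 8000 cells/well; DMSO in wells was 0.5%.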

[5] = Lactate dehydrogenase (LDH) release assay; type: cell-based; details: LDH: Cytotoxicity assay: EC50
Procedure, shortened: as §1

[6] = Solubility assay (kinetic solubility, PBS pH 7); type: physicochemical; details: pH 7, PBS
Procedure, shortened: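 Reference standards were made by diluting the 10 mM stock to 100 µM in acetonitrile:methanol:DMSO 10:80:10. Solubility in µM was calculated as the sample peak area divided by the standard peak area, multiplied by the standard concentration.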

| SMILES | EPSA [1] | logD [2] | cell entry EC50 [3] | LDH: Cytotoxicity assay: % Effect [4] | EC50 [5] | solubility kinetic ([6]; pH 7, aqueous buffer, kinetic from dmso stock, read-out: Solubility) | Partition Coeff LogD [2] | Solubility [6] |
| --- | --- | --- | --- | --- | --- | --- | --- | --- |
| CC(=O)N[C@@H](CCCCN=[N+]=[N-])C(=O)NCCC(=O)N[C@@H](CC(C)C)C(=O)N[C@H](C(=O)N[C@@H](Cc1ccccc1)C(=O)N[C@]1(C)CCCCCCC=CCCC[C@@](C)(C(=O)N[C@@H](CO)C(=O)N[C@@H](C)C(=O)N[C@@H](C)C(N)=O)NC(=O)[C@H](CC2CCC2)NC(=O)[C@H](CCC(N)=O)NC(=O)[C@H](C)NC(=O)[C@H](Cc2c[nH]c3ccccc23)NC(=O)[C@H](Cc2ccccc2)NC(=O)[C@H](CCC(=O)O)NC1=O)[C@@H](C)O [MP-028] (Ac-[Lys(N3)][βAla]LTF[R8]EFWAQ[Cba][S5]SAA-NH2; staple 6-13) | 197 A^2 | 3.2 | 46.4 nM | 33.41% | 8430 nM | 6 µM (≈ 11.7 µg/mL) | – | – |
| CC(=O)N[C@@H](CCCCN=[N+]=[N-])C(=O)NCCC(=O)N[C@@H](CC(C)C)C(=O)N[C@H](C(=O)N[C@@H](Cc1ccccc1)C(=O)N[C@]1(C)CCCCCCC=CCCC[C@@](C)(C(=O)N[C@@H](CO)C(=O)N[C@@H](C)C(=O)N[C@@H](C)C(N)=O)NC(=O)[C@H](CC2CCC2)NC(=O)[C@H](CCC(N)=O)NC(=O)[C@H](C)NC(=O)[C@H](Cc2cccc(C(F)(F)F)c2)NC(=O)[C@H](Cc2ccc(O)cc2)NC(=O)[C@H](CCC(=O)O)NC1=O)[C@@H](C)O [MP-030] (Ac-[Lys(N3)][βAla]LTF[R8]EY[Phe(3-CF3)]AQ[Cba][S5]SAA-NH2; staple 6-13) | 192 A^2 | – | 408 nM | 8.06% | > 50600 nM | – | Poorly Behaved | Poorly Behaved |
| CC(=O)N[C@@H](CCCCN=[N+]=[N-])C(=O)NCCC(=O)N[C@@H](CC(C)C)C(=O)N[C@H](C(=O)N[C@@H](Cc1ccccc1)C(=O)N[C@]1(C)CCCCCCC=CCCC[C@@](C)(C(=O)N[C@@H](CO)C(=O)N[C@@H](C)C(=O)N[C@@H](C)C(N)=O)NC(=O)[C@H](CC2CCC2)NC(=O)[C@H](CCC(N)=O)NC(=O)[C@H](C)NC(=O)[C@H](Cc2c[nH]c3ccccc23)NC(=O)[C@@H](CCC(=O)O)NC(=O)[C@H](C)NC1=O)[C@@H](C)O [MP-036] (Ac-[Lys(N3)][βAla]LTF[R8]A[dE]WAQ[Cba][S5]SAA-NH2; staple 6-13) | 188 A^2 | – | 53 nM | 2.628% | > 50600 nM | – | Poorly Behaved | Poorly Behaved |
| CC(C)C[C@H](NC(=O)CCNC(=O)[C@@H](N)CCCCN=[N+]=[N-])C(=O)N[C@H](C(=O)N[C@@H](Cc1ccccc1)C(=O)N[C@]1(C)CCCCCCC=CCCC[C@@](C)(C(N)=O)NC(=O)[C@H](CC(C)C)NC(=O)[C@H](CC(C)C)NC(=O)[C@H](C)NC(=O)[C@H](Cc2c[nH]c3ccccc23)NC(=O)[C@H](Cc2ccc(O)cc2)NC(=O)[C@H](CCC(=O)O)NC1=O)[C@@H](C)O [MP-0176] (H-[Lys(N3)][βAla]LTF[R8]EYWALL[S5]-NH2; staple 6-13) | 212 A^2 | 2.85 | 217 nM | 6.97% | > 50600 nM | – | – | Poorly Behaved |
| CC(C)C[C@@H]1NC(=O)[C@H](C)NC(=O)[C@H](Cc2c[nH]c3ccccc23)NC(=O)[C@H](Cc2ccc(O)cc2)NC(=O)[C@H](CCC(=O)O)NC(=O)[C@](C)(NC(=O)[C@H](Cc2ccccc2)NC(=O)[C@H](CO)NC(=O)[C@@H](NC(=O)CCNC(=O)[C@@H](N)CCCCN=[N+]=[N-])[C@@H](C)O)CCCCCCC=CCCC[C@@](C)(C(N)=O)NC(=O)[C@H](CC(C)C)NC1=O [MP-0177] | 218 A^2 | 2.7 | 130 nM | -0.29% | > 50600 nM | – | – | Poorly Behaved |

— PMC10786919, “Design-rules for stapled peptides with in vivo activity and their application to Mdm2/X antagonists” (Nature Communications, 2024)
